O=S(=O)([O-])NC1CCCCC1.[Na+]
Conditions | solubility (mole fraction)
in DMF, 283.15 K | 3.1e-05
in DMF, 288.14 K | 0.000121
in DMF, 293.17 K | 0.000214
in DMF, 298.15 K | 0.000364
in DMF, 303.13 K | 0.00051
in DMF, 308.15 K | 0.000724
in DMF, 313.14 K | 0.00095
in DMF, 318.13 K | 0.00119
in DMF, 323.17 K | 0.00141
in DMSO, 293.13 K | 0.000997
in DMSO, 298.15 K | 0.00226
in DMSO, 303.14 K | 0.00433
in DMSO, 308.15 K | 0.00792
in DMSO, 313.16 K | 0.0117
in DMSO, 318.15 K | 0.0154
in DMSO, 323.2 K | 0.0183
in DMSO, 328.15 K | 0.0198
in DMSO, 333.17 K | 0.0203
in acetic acid, 293.15 K | 0.0037
in acetic acid, 298.14 K | 0.00501
in acetic acid, 303.15 K | 0.00649
in acetic acid, 308.17 K | 0.00753
in acetic acid, 313.15 K | 0.00877
in acetic acid, 318.13 K | 0.0103
in acetic acid, 323.15 K | 0.0115
in acetic acid, 328.17 K | 0.0128
in acetic acid, 333.2 K | 0.0134
in formamide, 283.13 K | 0.0319
in formamide, 288.15 K | 0.0391
in formamide, 293.16 K | 0.0438
in formamide, 298.17 K | 0.0472
in formamide, 303.15 K | 0.0506
in formamide, 308.14 K | 0.0526
in formamide, 313.15 K | 0.0543
in formamide, 318.12 K | 0.0554
in formamide, 323.15 K | 0.0567
in formic acid, 283.13 K | 0.016
in formic acid, 288.13 K | 0.0179
in formic acid, 293.1 K | 0.0209
in formic acid, 299.12 K | 0.0239
in formic acid, 303.15 K | 0.0275
in formic acid, 308.17 K | 0.0319
in formic acid, 313.13 K | 0.037
in formic acid, 318.2 K | 0.0424
in formic acid, 323.15 K | 0.0487
in methanol, 283.1 K | 0.00271
in methanol, 288.15 K | 0.00295
in methanol, 293.24 K | 0.00314
in methanol, 298.1 K | 0.00331
in methanol, 303.15 K | 0.00352
in methanol, 308.2 K | 0.00376
in methanol, 313.19 K | 0.00405
in methanol, 318.2 K | 0.00436
in methanol, 323.15 K | 0.00467
in water, 283.13 K | 0.0152
in water, 288.17 K | 0.0166
in water, 293.15 K | 0.018
in water, 298.14 K | 0.02
in water, 303.17 K | 0.0233
in water, 308.13 K | 0.0284
in water, 313.15 K | 0.0363
in water, 318.14 K | 0.0461
in water, 323.15 K | 0.0512

— BigSolDB 2.1
